Assay results: patent publication US10745755B2, “Sestrin activators for preventing and/or attenuating skin ageing and/or hydrating the skin and/or for regulating skin pigmentation” (CHANEL PARFUMS BEAUTE, priority 2014, dated 2020)

How the values were obtained:
Format in all cases: cell-based
SESN3 = SESN3 immunofluorescence in human skin equivalents; conditions: versus untreated control, extract last 7 days, retinol last 4 days
Procedure: (§1) Keratinocytes and fibroblasts from juvenile donors were purchased from Promocell. The dermal equivalent consists of a collagen solution containing rat tail collagen type I (BD Biosciences), 10× DMEM medium (Gibco/Invitrogen), sodium bicarbonate (Gibco/Invitrogen) and fibroblasts added into 6 well-culture inserts (BD) and placed in deep 6-well culture plates (BD). After 2 hours, of polymerisation at 37° C., dermal equivalents were equilibrated in supplemented Keratinocyte Growth Medium (KGM2 basal medium+SupplementMix, Promocell) and placed at 37° C., 5% CO2. After 24 hours, suspension of keratinocytes was added over the gel and submerged for 3 days in supplemented Keratinocyte Growth Medium. The inserts were placed at the air liquid interface in Serum-free Keratinocyte Defined Medium (SKDM: SKDM is a high Ca^2+ medium consisting of KGM2 basal medium, transferrin (Sigma), BSA (Sigma) and L-ascorbic acid (Sigma)) for 10 days. 24 hours before culture arrest, skin equivalents were irradiated, in duplicates, with 100 mJ/cm^2 UVB.
(§2) Human skin equivalents were fixed in 10% formalin before embedding in paraffin and cutting into 5 μm-thick sections. Sections were deparaffinized in xylene, rehydrated in ethanol baths, rinsed in deionised water. Antigen retrieval in 10 mM citrate buffer pH6 at 90° C. for 20 minutes was performed before blocking reaction in goat serum 3% for 1 hour. […]

Loricrin = Loricrin immunostaining in human skin equivalents; conditions: versus untreated control, extract last 7 days, retinol last 4 days
Procedure: as §1, §2

Cytokeratin 10 = Cytokeratin 10 immunostaining in human skin equivalents; conditions: versus untreated control, retinol last 4 days
Procedure: as §1, §2

CC1=C(/C=C/C(C)=C/C=C/C(C)=C/CO)C(C)(C)CCC1 [retinol]
decreased: SESN3 staining intensity (SESN3) | Loricrin immunostaining (Loricrin) | Cytokeratin 10 immunostaining (Cytokeratin 10)
